Each structure is given as a SMILES string. Read-outs that look alike come from different tables or passages of the source.

Series [1] in a line: Tolerability / toxicity on repeated dosing in mice.
The nature of series [2]: Single-dose pharmacokinetic studies in female FVB mice (PO, IV, IP). Conditions: mouse; for bioavailability / Kp: female, 10 mg/kg; for bioavailability: FVB, mice, IV 1 mg/kg, oral 10 mg/kg, read-out: oral (absolute) bioavailability; for Kp: brain and plasma, FVB mice, single oral dose, read-out: brain:plasma AUClast ratio. In kind it is in vivo, mouse. As for the experimental part: For in-vivo pharmacokinetic studies, compounds were dissolved in a formulation containing 20% propylene glycol, 5% ethanol, 5% labrosol, and 70% polyethylene glycol 400 (PEG400) and administered by oral gavage to female FVB mice weighing ˜25 g. At specified time points after dosing (0.25, 0.5, 1, 2, 4, 6, and 24 h), 2 animals were euthanized by CO2, and ˜1 mL blood (by cardiac puncture) and brain samples were collected. The heparinized blood samples were centrifuged to obtain plasma, which was stored at −80° C. until analysis. Brain samples were weighed, diluted […] with water, and then homogenized using a Precellys 24 tissue homogenizer. Brain homogenates (20% wt/vol) were stored at −80° C. until analysis. Pharmacokinetic protocols involving animals were all reviewed and approved by the UCSF institutional animal care and use committee (IACUC).
Plasma and brain homogenate samples were extracted using a protein-precipitation method and analyzed by specific LC/MS/MS methods developed for each compound dosed in vivo. The analytical method accuracy and precision were monitored by analyzing quality control (QC) samples that were prepared and treated using the same methods as calibration standards for the plasma or brain homogenate samples.
The data were used to calculate the area under the concentration-time curve (AUClast) by noncompartmental analysis with sparse sampling performed using Phoenix WinNonlin 6.1 software (Pharsight, Mountain View, Calif.).
Pharmacokinetic protocols employing mice were reviewed and approved by the UCSF Institutional Animal Care and Use Committee (IACUC). Female FVB mice, weighing approximately 25 g, were used for all in vivo pharmacokinetic studies. Mice were housed with free access to food and water, and were maintained on 12-h light/dark cycles for 1 week before dosing studies were initiated.
For the single-dose of 40 mg/kg, compounds were dissolved in a formulation containing 5% propylene glycol, […] α-tocopheryl polyethylene glycol 1000 succinate (TPGS) and 70% polyethylene glycol 400 (PEG400), and administered by oral gavage. Two animals per time point were used. At specified time points after dosing (0.5, 1, 2, 4, 6, and 24 h), animals were euthanized by CO2, and blood for plasma (by cardiac puncture) and brain samples were collected. The heparinized blood samples were centrifuged to obtain plasma. Brain samples were weighed, diluted 10-fold with water, and then homogenized using a Precellys 24 tissue homogenizer. The brain and plasma samples were flash-frozen on dry ice and then stored at −80° C. until analysis. For the single-dose administration at 10 mg/kg, compounds were dissolved in a formulation containing 20% propylene glycol, 5% ethanol, 5% labrosol, and 70% PEG400, and administered by oral gavage. Two animals per time point were used. At specified time points after dosing (0.25, 0.5, 1, 2, 4, 6, and 24 h), animals were euthanized by CO2, and blood for plasma (by cardiac puncture) and brain samples were collected. The heparinized blood samples were centrifuged to obtain plasma. Brain samples were weighed, diluted five-fold with water, and then homogenized using a Precellys 24 tissue homogenizer. The brain and plasma samples were flash-frozen on dry ice and then stored at −80° C. until analysis.
Compounds were administered through tail vein injection. Two animals per time point were used. At specified time points after dosing (5 min, 0.25, 0.5, 1, 2, 4, and 6 h), animals were euthanized by CO2. Blood and brain samples were obtained and processed as described above for the oral dosing at 40 mg/kg.
Plasma and brain homogenate samples were extracted using a protein-precipitation method and analyzed by specific LC/MS/MS methods developed for each compound dosed in vivo. The analytical method accuracy and precision were monitored by analyzing quality control (QC) samples that were prepared by the same methods as the plasma or brain homogenate samples. […]

Series [3] can be described thus: Binding in mouse plasma. The following applies: for Percentage binding, Mouse plasma, 1 μM / Unbound (%), Mouse Plasma: 1 μM; for Unbound (%), Mouse Plasma: mean ± SD, n = 3 (warfarin n = 2).
For series [4] the following is noted: 1 and 10 μM.
The target in series [5] is T1, CYP1A2 (Homo sapiens, UniProt P05177).
T1 construct: tissue BD Biosciences; host or cells: pooled human liver microsomes
T1 sequence (P05177 1-516): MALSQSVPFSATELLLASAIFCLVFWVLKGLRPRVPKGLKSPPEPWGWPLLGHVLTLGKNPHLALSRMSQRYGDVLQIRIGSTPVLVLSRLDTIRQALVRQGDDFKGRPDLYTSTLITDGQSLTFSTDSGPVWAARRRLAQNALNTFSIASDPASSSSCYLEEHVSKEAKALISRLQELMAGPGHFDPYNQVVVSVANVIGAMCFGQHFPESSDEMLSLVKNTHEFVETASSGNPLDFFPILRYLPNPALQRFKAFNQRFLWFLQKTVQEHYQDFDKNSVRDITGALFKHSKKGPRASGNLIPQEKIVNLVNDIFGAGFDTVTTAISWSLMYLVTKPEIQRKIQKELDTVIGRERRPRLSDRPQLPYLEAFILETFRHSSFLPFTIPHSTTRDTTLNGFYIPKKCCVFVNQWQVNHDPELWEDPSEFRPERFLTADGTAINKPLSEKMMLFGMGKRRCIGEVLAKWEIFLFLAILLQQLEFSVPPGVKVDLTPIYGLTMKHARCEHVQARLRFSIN
Nature of the series: CYP phenotyping in human liver microsomes, furafylline. It counts as in vitro ADME. The following applies: for CYP Involvement: CYP1A2, NADPH + Furafylline; for % Disappearance / Measured Conc. / Δ % Disappearance: irreversible incubation condition, NADPH + Furafylline.

A short description of series [6]: Binding in rat plasma.
A short description of series [7]: in vitro. The following applies: mouse, 20% brain homogenate.
In series [8] the target is T2, CYP2D6 (Homo sapiens, UniProt P10635).
T2 construct: tissue BD Biosciences; host or cells: pooled human liver microsomes
Nature of the series: CYP phenotyping in human liver microsomes, quinidine. In kind it is in vitro ADME. The following applies: for CYP Involvement: CYP2D6, NADPH + Quinidine; for % Disappearance / Measured Conc. / Δ % Disappearance: reversible incubation condition, NADPH + Quinidine. (In general: Microsomes from liver hold many membrane-bound enzymes, among them those of drug oxidation.)

The mark [9] stands for this setting: chronic studies in mice, wide range of doses.

T2 sequence (P10635 whole entry): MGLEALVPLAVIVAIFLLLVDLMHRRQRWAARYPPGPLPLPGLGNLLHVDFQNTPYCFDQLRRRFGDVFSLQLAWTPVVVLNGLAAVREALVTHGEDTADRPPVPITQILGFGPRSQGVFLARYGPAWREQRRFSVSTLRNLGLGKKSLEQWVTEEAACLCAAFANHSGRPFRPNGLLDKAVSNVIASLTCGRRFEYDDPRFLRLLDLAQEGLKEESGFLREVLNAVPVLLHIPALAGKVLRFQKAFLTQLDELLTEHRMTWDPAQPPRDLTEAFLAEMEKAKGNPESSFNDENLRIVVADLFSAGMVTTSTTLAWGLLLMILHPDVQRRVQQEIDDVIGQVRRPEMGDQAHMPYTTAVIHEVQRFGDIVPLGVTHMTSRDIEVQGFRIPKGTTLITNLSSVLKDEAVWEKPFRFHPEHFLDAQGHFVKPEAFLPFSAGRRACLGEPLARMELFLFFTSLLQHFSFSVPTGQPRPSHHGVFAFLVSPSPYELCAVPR

Broadly, the bioavailability is dose-corrected exposure relative to a reference, in per cent. `C(=N\Nc1ccc(-c2cnco2)cc1)/c1ccncc1` [IND54304, reference compound]: in series [1] (25, 50, 100, 150 mg/kg for 3 days in liquid diet), the tolerability result was “tolerated”. In series [1] (≧150 mg/kg/day for 8 days), the animals dying was 2/4. The bioavailability in series [2] (plasma, po) lay within 25 to 27%. Moreover, the Kp in series [2] worked out at 0.5.
The half-life is the time needed for the level to fall by half in the phase considered. Higher therefore signals slow loss. The fraction unbound is the share of the substance not bound to proteins or other matrix. Read a low fraction unbound as little free substance. `Cc1cccc(Nc2nc(-c3ccc(-c4ccccc4)cc3)cs2)n1` [IND24, (4-Biphenyl-4-yl-thiazol-2-yl)-(6-methyl-pyridin-2-yl)-amine]: in series [3], the “Percentage binding, Mouse plasma, 1 μM” value amounted to 93.4 ± 1.55%; the “Unbound (%), Mouse Plasma” value is reported as 6.63 ± 1.55%; the “Percentage binding, Mouse plasma, 10 μM” value is reported as 95.8 ± 0.14%. Besides, in series [1] (setting [9]), the tolerability entry is reported as “well tolerated”. Further, in series [2] (plasma, oral), the bioavailability was in the range of 27 to 40%. Further, the bioavailability in series [2] (plasma, po) is 40%. Besides, the Kp in series [2] worked out at 2.6. The same compound had a half-life in series [2] (plasma, female FVB mice, 1 mg/kg IV) of 2 h. Also, the brain tissue binding in series [4] is reported as 92-93%. Besides, in series [5], the “CYP Involvement” value is given as “Unlikely (unlikely for values <5)”, the “% Disappearance” value is 0 (−23) %, the “Measured Conc.” value worked out at 0.766 µM and the “Δ % Disappearance” value was determined as 0%. Further, in series [6], the “Percentage binding, Rat plasma, 1 μM” value amounted to 93.4 ± 2.13% and the “Percentage binding, Rat plasma, 10 μM” value came to 94.0 ± 1.04%. The fraction unbound in series [7] was 0.07 to 0.08. Moreover, in series [8], the “CYP Involvement” value was “Unlikely (unlikely for values <5)”, the “% Disappearance” value was determined as 15%, the “Measured Conc.” value is 0.555 µM and the “Δ % Disappearance” value is on record as 0 (−15) %.
With `Cc1ccnc(Nc2nc(-c3ccc(-c4ccccn4)s3)cs2)c1` [IND81, (4-Methyl-pyridin-2-yl)-[4-(5-pyridin-2-yl-thiophen-2-yl)-thiazol-2-yl]-amine], in series [3], the “Percentage binding, Mouse plasma, 1 μM” value is 93.5 ± 1.10%; the “Unbound (%), Mouse Plasma” value came out at 6.48 ± 1.10%; the “Percentage binding, Mouse plasma, 10 μM” value came to 96.0 ± 0.04%. In addition, the tolerability entry in series [1] (setting [9]) is “well tolerated”. For the same compound, the bioavailability in series [2] (plasma, oral) lay in the range of 27 to 40%. The bioavailability in series [2] (plasma, po) lay within 25 to 27%. In addition, the Kp in series [2] was 5.5. Also, the brain tissue binding in series [4] was ~90%. In series [5], the “CYP Involvement” value was “Unlikely (unlikely for values <5)”, the “% Disappearance” value came to 41%, the “Measured Conc.” value came out at 0.534 µM and the “Δ % Disappearance” value is 43%. In series [6], the “Percentage binding, Rat plasma, 1 μM” value came out at 94.2 ± 0.48% and the “Percentage binding, Rat plasma, 10 μM” value came to 95.5 ± 0.66%. In series [7], this compound displayed a fraction unbound of 0.09. Moreover, in series [8], the “CYP Involvement” value is “Likely (likely for values >10)”, the “% Disappearance” value amounted to 55%, the “Measured Conc.” value is 0.300 µM and the “Δ % Disappearance” value is 11%.
